# US9273084B2, “Moenomycin analogs, methods of synthesis, and uses thereof” (priority 2012, dated 2016)
# Counter-ions that a name gives are not always drawn.
# Key:
# E. coli MG1655 = assay: MIC assay, 96 well broth dilution with MTT staining; format: cell-based; parameters: unit not given beside the values; conditions: LB, 35-37° C., 20 h
# Procedure: (§1) A 96 well plate with 100 μL test medium in all wells was prepared by handheld multipipettor. A stock solution of the antibiotic or compound in DMSO (0.05˜10 mg/mL, 5 μL) and the same medium (95 μL) were put together into column one, where the compound concentration doubled the highest one to be tested. Two columns were necessary for each compound to check the reproducibility. The compound was diluted by adding 100 μL from column one to column two with a 50% volume mix done three times; diluting serially across the plate was continued.
# (§2) The day before the assay was scheduled to be run, strains were suspended in the test media (Brain Heart Infusion (BHI) containing 0.1% casamino acids for S. aureus, S. epidermidis, and E. faecalis, Trypticase Soy Broth (TSB) containing 5% sheep blood for S. pneumoniae, and Lysogeny Broth (LB) for E. coli) and incubated overnight at 35-37° C. The suspension was diluted with the same media to 1%, 100 μL of which was added to each well of the MIC plate. The MIC plate was incubated at 35-37° C. for 20 h. A thiazolyl blue tetrazolium bromide (MTT) solution (1 mg/mL-water, 50 μL) was added into each well and the resulting MIC plate was incubated at 35-37° C. for a few hours to stain wells in which cell proliferated. Growth is also visible as any turbidity in wells.
# E. faecalis 29212 = assay: as above; format: cell-based; parameters: unit not given beside the values; conditions: BHI containing 0.1% casamino acids, 35-37° C., 20 h
# Procedure: as §1, §2
# E. faecalis 33186 = assay: as above; format: cell-based; parameters: unit not given beside the values; conditions: BHI containing 0.1% casamino acids, 35-37° C., 20 h
# Procedure: as §1, §2
# S. aureus 13709 = assay: as above; format: cell-based; parameters: unit not given beside the values; conditions: BHI containing 0.1% casamino acids, 35-37° C., 20 h
# Procedure: as §1, §2
# S. aureus 25923 = assay: as above; format: cell-based; parameters: unit not given beside the values; conditions: S. aureus 25923 (second strain line); BHI containing 0.1% casamino acids; 35-37° C., 20 h
# Procedure: as §1, §2
# S. epidermidis 1228 = assay: as above; format: cell-based; parameters: unit not given beside the values; conditions: BHI containing 0.1% casamino acids, 35-37° C., 20 h
# Procedure: as §1, §2
# S. epidermidis 700562 = assay: as above; format: cell-based; parameters: unit not given beside the values; conditions: BHI containing 0.1% casamino acids, 35-37° C., 20 h
# Procedure: as §1, §2
# S. pneumoniae #1629 = assay: as above; format: cell-based; conditions: TSB containing 5% sheep blood, 35-37° C., 20 h
# Procedure: as §1, §2
# S. pneumoniae 6303 = assay: as above; format: cell-based; conditions: TSB containing 5% sheep blood, 35-37° C., 20 h
# Procedure: as §1, §2
# E. coli NR698 = format: cell-based; parameters: unit not given beside the values; conditions: LB, 35-37° C., 20 h
# Procedure: as §1, §2
# [1] = Pharmacokinetics following IV and SC administration; format: in vivo; conditions: for half-life: NCA analysis
# Procedure: Curtailing the tail portion of Moenomycin A (MmA) led to shorter half-life. […] The clearance following IV administration was very low leading higher exposure (3 mL/hr/kg) and volume of distribution (Vss) was 0.5 L/kg.
# Gram-positive organisms = conditions: against Gram-positive organisms; cited from earlier work
# [2] = S. aureus 13709 (first strain line)
# [3] = S. aureus 13709 (third strain line)
smiles,measurement,setting,value
"CC(=O)NC1C(OC2C(COC3OC(CO)C(O)C(O)C3O)OC(OC3C(OP(=O)(O)OCC(OCc4cccc(OCc5cccc(-c6cccc(OCc7ccccc7)c6)c5)c4)C(=O)O)OC(C(N)=O)C(C)(O)C3OC(N)=O)C(NC(C)=O)C2O)OC(C)C(OC2OC(C(=O)NC3=C(O)CCC3=O)C(O)C(O)C2O)C1O.N [1i, N1-[(2-Hydroxy-5-oxo-cyclopenten-1-yl)-(5S)-β-D-galactopyranuronamide]-(1→4)-2-acetamide-2,6-dideoxy-β-D-gluopyranosyl-(1→4)-[β-D-glucopyranosyl-(1→6)]-2-acetamido-2-deoxy-β-D-glucopyranosyl)-(1→2)-3-O-carbamoyl-1-O—{[(R)-2-carboxy-2-(3-((3′-(benzyloxy)-[1,1′-biphenyl]-3-yl)methoxy)phenylmethan-1-yloxy)ethoxy]hydroxyphosphoryl}-4-C-methyl-α-D-glucopyranuronamide]",MIC,E. coli MG1655,> 250
same,MIC,E. faecalis 29212,16
same,MIC,E. faecalis 33186,32
same,MIC,S. aureus 13709; [2],7.8
same,MIC,S. aureus 13709; [3],7.8
same,MIC,S. aureus 25923,7.8
same,MIC,S. epidermidis 1228,3.9
same,MIC,S. epidermidis 700562,7.8
same,MIC,S. pneumoniae #1629,7.8
same,MIC,S. pneumoniae 6303,3.9
same,MIC,E. coli NR698,0.49
"CC(=O)NC1C(OC2C(COC3OC(CO)C(O)C(O)C3O)OC(OC3C(OP(=O)(O)OCC(OCc4cccc(OCc5cccc(-c6cccc(C)c6)c5)c4)C(=O)O)OC(C(N)=O)C(C)(O)C3OC(N)=O)C(NC(C)=O)C2O)OC(C)C(OC2OC(C(=O)NC3=C(O)CCC3=O)C(O)C(O)C2O)C1O.N [1j, N1-[(2-Hydroxy-5-oxo-cyclopenten-1-yl)-(5S)-β-D-galactopyranuronamide]-(1→4)-2-acetamide-2,6-dideoxy-β-D-gluopyranosyl-(1→4)-[β-D-glucopyranosyl-(1→6)]-2-acetamido-2-deoxy-β-D-glucopyranosyl)-(1→2)-3-O-carbamoyl-1-O—{[(R)-2-carboxy-2-(3-((3′-methyl-[1,1′-biphenyl]-3-yl)methoxy)phenylmethan-1-yloxy)ethoxy]hydroxyphosphoryl}-4-C-methyl-α-D-glucopyranuronamide]",MIC,E. coli MG1655,> 250
same,MIC,E. faecalis 29212,>250 >250
same,MIC,E. faecalis 33186,>250 >250
same,MIC,S. aureus 13709; [2],>250 >250 >250
same,MIC,S. aureus 13709; [3],>250 >250 >250
same,MIC,S. aureus 25923,>250 >250 >250
same,MIC,S. epidermidis 1228,125
same,MIC,S. epidermidis 700562,> 250
same,MIC,S. pneumoniae #1629,16
same,MIC,S. pneumoniae 6303,16
same,MIC,E. coli NR698,0.98
C=C(C/C=C(\C)CCC=C(C)C)CCC(C)(C)/C=C/CC/C(C)=C/CO[C@@H](COP(=O)(O)O[C@H]1O[C@H](C(N)=O)[C@@](C)(O)[C@H](OC(N)=O)[C@H]1O[C@@H]1O[C@H](CO[C@@H]2O[C@H](CO)[C@@H](O)[C@H](O)[C@H]2O)[C@@H](O[C@@H]2O[C@H](C)[C@@H](O[C@@H]3O[C@H](C(=O)NC4=C(O)CCC4=O)[C@H](O)[C@H](O)[C@H]3O)[C@H](O)[C@H]2NC(C)=O)[C@H](O)[C@H]1NC(C)=O)C(=O)O [Moenomycin A],MIC,E. coli MG1655,31
same,MIC,S. aureus 13709; [2],0.16
same,MIC,S. aureus 13709; [3],0.078
same,MIC,S. aureus 25923,0.16
same,MIC,E. coli NR698,0.0098
same,clearance,[1]; IV administration (2 mpk),3 mL/h/kg
same,volume of distribution (Vss),[1]; IV administration (2 mpk),0.5 L/kg
same,half-life,[1]; IV administration (2 mpk),209 h
same,% SC bioavailability,[1]; SC (10 mpk) vs IV (2 mpk),89%
same,half-life,[1]; SC administration (10 mpk),180 h
same,systemic exposure,[1]; following IV (2 mpk) and SC (10 mpk) administration,significant systemic exposure
same,potency compared with vancomycin,Gram-positive organisms,10-1000 times
"CN[C@H](CC(C)C)C(=O)N[C@H]1C(=O)N[C@@H](CC(N)=O)C(=O)N[C@H]2C(=O)N[C@H]3C(=O)N[C@H](C(=O)N[C@H](C(=O)O)c4cc(O)cc(O)c4-c4cc3ccc4O)[C@H](O)c3ccc(c(Cl)c3)Oc3cc2cc(c3O[C@@H]2O[C@H](CO)[C@@H](O)[C@H](O)[C@H]2O[C@H]2C[C@](C)(N)[C@H](O)[C@H](C)O2)Oc2ccc(cc2Cl)[C@H]1O [Vancomycin•HCl, reference compound]",MIC,E. coli MG1655,250
same,MIC,E. faecalis 29212,3.9
same,MIC,E. faecalis 33186,2.0
same,MIC,S. aureus 13709; [2],3.9
same,MIC,S. aureus 13709; [3],2.0
same,MIC,S. aureus 25923,3.9
same,MIC,S. epidermidis 1228,2.0
same,MIC,S. epidermidis 700562,3.9
same,MIC,S. pneumoniae #1629,0.49
same,MIC,S. pneumoniae 6303,0.49
same,MIC,E. coli NR698,0.49
